This is an account of results in paper PMC11126801 (The Journal of Biological Chemistry, 2024).

Series [1] has as its target T1, HCN3 (Homo sapiens, UniProt Q9P1Z3).
T1 sequence (Q9P1Z3 1-774): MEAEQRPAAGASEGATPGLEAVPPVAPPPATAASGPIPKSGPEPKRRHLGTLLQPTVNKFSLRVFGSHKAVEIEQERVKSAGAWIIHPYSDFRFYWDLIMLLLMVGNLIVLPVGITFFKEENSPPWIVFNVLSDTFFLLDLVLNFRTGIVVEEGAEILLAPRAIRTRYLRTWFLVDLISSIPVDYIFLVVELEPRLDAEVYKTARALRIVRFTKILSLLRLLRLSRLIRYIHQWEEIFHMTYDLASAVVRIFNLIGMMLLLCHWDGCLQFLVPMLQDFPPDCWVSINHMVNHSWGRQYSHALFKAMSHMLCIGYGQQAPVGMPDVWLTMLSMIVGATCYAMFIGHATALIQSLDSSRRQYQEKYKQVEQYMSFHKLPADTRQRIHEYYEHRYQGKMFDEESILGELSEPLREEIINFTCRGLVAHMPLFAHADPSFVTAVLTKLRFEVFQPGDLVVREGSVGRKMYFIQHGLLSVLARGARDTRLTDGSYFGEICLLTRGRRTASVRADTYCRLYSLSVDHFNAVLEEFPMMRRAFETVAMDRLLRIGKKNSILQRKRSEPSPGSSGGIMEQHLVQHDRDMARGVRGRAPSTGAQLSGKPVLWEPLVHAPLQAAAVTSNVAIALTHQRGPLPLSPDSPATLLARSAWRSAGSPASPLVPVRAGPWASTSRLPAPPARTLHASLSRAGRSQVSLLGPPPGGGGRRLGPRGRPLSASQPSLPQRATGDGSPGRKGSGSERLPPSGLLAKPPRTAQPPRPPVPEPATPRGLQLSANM
Put plainly: whole-cell patch clamp of HCN3 currents in transfected HeLa cells. The format is cell-based. Also on record: human HCN3 (WT) expressed in HeLa cells.

The target of series [2] is T1, HCN3. Put plainly: cryo-EM structure of the apo channel ([…] Å) with CHS density; IC50 by whole-cell patch clamp. The format is cell-based. (In general: The patch-clamp technique gives a direct electrical read-out from membranes.)
Series [3] concerns the molecule itself. Put plainly: cryo-EM structure; single-particle cryo-EM of MBP-HCN3 in 0.1% digitonin, 300 mM KCl, 2 mM DTT, 20 mM Tris pH 8.0; ligand-free sample and sample with 5 mM cAMP; final refinement in C4 symmetry.

As a reminder, the IC50 is the concentration that inhibits the measured activity by half. Read a low IC50 as greater potency. On HCN3 [1], `CC(C)CCC[C@@H](C)[C@H]1CC[C@H]2[C@@H]3CC=C4C[C@@H](O)CC[C@]4(C)[C@H]3CC[C@]12C` [cholesterol] showed an IC50 of 480 µM.
Molecule `CC(C)CCC[C@@H](C)[C@H]1CC[C@H]2[C@@H]3CC=C4C[C@@H](OC(=O)CCC(=O)O)CC[C@]4(C)[C@H]3CC[C@]12C` [cholesteryl hemisuccinate] displayed an IC50 on HCN3 [2] of 1450 µM.

B1: full-length wild-type human HCN3 with its N terminus fused to maltose-binding protein (MBP) (natural protein, UniProt Q9P1Z3 1-774, looked up)
chain: T1 sequence (Q9P1Z3 1-774)
notes: the tag was not cleaved for the structures; Modelled residues: 50-151, 156-191, 210-476, 484-543 (apo); also 477-483 with cAMP; also called HCN3 channel; apo-HCN3; source: HEK293S cells, BacMam transduction, purified (MBP beads, Superose 6 SEC, digitonin); not shown: MBP, N-terminal, kept
A word on the stoichiometry N: it is the number of molecules, sites or subunits per partner or assembly. As for B1, the “stoichiometry N” value in series [3] came to 4.
